Experimental findings from patent US12258327B2, “5-membered heteroaryl-containing aminopyridine compounds as EGFR inhibitors” (YUHAN CORPORATION, priority 2021, dated 2025) are described below.

One assay addresses EGFR del19/T790M/C797S (Homo sapiens, UniProt P00533, C797S/DEL746-750/T790M). As to the kind of experiment: Biochemical EGFR kinase assay (Lance Ultra TR-FRET), triple mutant del19/T790M/C797S. In short, it runs like this: (§1)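 Step 1: compound in kinase buffer, 0.003–10 μM. Step 2: kinase reaction 1 h at room temperature. Step 4: TR-FRET read at 615/665 nm; IC50 calculated.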
The next assay deals with EGFR del19/C797S (Homo sapiens, UniProt P00533, C797S/DEL746-750). In words: Biochemical EGFR kinase assay (Lance Ultra TR-FRET), double mutant del19/C797S. In short, it runs like this:
as §1
For orientation: Time-resolved FRET reads energy transfer from a long-lived donor to a nearby acceptor.

A further assay addresses EGFR L858R/T790M/C797S (Homo sapiens, UniProt P00533, C797S/L858R/T790M). As to the kind of experiment: Biochemical EGFR kinase assay (Lance Ultra TR-FRET), triple mutant L858R/T790M/C797S. In a few lines:
as §1

For a further assay, the target named is EGFR L858R/C797S (Homo sapiens, UniProt P00533, C797S/L858R). In words: Biochemical EGFR kinase assay (Lance Ultra TR-FRET), double mutant L858R/C797S. In short, it runs like this:
as §1

The next assay concerns the target EGFR wildtype (WT) (Homo sapiens, UniProt P00533). In words: Biochemical EGFR kinase assay (Lance Ultra TR-FRET), wildtype. In short, it runs like this:
as §1

[1] abbreviates: IC50 del19/T790M/C797S (nM) 100 μM ATP, 100 μM ATP.
The mark [2] stands for this setting: Km ATP, read-out: IC50 del19/T790M/C797S (nM) Km ATP.
Setting [3] is: IC50 del19/C797S (nM) 100 μM ATP, 100 μM ATP.
Where [4] appears, read: Km ATP, read-out: IC50 del19/C797S (nM) Km ATP.
Setting [5] is: IC50 L858R/T790M/C797S (nM) 100 μM ATP, 100 μM ATP.
[6] abbreviates: Km ATP, read-out: IC50 L858R/T790M/C797S (nM) Km ATP.
The mark [7] stands for this setting: IC50 L858R/C797S (nM) 100 μM ATP, 100 μM ATP.
[8] abbreviates: Km ATP, read-out: IC50 L858R/C797S (nM) Km ATP.
[9] abbreviates: IC50 WT (nM) 100 μM ATP, 100 μM ATP.
The mark [10] stands for this setting: Km ATP, read-out: IC50 WT (nM) Km ATP.

Molecules are shown by their SMILES. Like-named read-outs stand apart in the source and are kept apart here. A value given as a limit tells only on which side of the number the result lay.

Sequence of EGFR del19/C797S (P00533 with tags, fused parts or gaps DEL746-750/C797S): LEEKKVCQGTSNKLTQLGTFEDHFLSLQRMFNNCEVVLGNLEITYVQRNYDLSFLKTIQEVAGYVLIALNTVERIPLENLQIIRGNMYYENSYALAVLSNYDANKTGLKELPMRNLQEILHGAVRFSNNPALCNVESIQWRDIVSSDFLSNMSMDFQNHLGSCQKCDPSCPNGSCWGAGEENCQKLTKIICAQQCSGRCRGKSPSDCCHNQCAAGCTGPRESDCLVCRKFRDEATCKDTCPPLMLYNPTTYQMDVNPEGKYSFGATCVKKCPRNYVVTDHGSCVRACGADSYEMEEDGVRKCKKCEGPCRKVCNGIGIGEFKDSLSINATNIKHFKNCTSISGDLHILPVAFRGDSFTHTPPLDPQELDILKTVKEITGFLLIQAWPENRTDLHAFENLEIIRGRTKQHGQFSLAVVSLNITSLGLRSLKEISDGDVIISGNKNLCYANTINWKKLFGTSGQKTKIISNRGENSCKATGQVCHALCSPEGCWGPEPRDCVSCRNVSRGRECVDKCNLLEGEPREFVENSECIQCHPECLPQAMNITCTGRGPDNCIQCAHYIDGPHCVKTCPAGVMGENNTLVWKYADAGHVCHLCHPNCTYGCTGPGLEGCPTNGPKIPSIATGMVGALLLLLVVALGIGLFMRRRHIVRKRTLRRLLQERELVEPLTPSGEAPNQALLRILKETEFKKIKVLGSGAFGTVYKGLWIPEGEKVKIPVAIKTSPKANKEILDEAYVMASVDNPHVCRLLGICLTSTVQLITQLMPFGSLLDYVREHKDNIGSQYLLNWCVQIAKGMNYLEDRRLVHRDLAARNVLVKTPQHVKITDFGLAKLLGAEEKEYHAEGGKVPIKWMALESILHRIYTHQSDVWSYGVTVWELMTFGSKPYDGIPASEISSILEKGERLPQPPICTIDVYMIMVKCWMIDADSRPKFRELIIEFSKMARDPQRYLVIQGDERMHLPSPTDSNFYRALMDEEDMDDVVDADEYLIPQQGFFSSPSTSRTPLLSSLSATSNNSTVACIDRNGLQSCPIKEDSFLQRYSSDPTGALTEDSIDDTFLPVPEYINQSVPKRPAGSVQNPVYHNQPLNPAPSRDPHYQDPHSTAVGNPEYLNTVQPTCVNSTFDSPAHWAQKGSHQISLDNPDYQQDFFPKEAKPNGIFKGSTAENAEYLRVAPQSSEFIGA
Sequence of EGFR del19/T790M/C797S (P00533 with tags, fused parts or gaps DEL746-750/T790M/C797S): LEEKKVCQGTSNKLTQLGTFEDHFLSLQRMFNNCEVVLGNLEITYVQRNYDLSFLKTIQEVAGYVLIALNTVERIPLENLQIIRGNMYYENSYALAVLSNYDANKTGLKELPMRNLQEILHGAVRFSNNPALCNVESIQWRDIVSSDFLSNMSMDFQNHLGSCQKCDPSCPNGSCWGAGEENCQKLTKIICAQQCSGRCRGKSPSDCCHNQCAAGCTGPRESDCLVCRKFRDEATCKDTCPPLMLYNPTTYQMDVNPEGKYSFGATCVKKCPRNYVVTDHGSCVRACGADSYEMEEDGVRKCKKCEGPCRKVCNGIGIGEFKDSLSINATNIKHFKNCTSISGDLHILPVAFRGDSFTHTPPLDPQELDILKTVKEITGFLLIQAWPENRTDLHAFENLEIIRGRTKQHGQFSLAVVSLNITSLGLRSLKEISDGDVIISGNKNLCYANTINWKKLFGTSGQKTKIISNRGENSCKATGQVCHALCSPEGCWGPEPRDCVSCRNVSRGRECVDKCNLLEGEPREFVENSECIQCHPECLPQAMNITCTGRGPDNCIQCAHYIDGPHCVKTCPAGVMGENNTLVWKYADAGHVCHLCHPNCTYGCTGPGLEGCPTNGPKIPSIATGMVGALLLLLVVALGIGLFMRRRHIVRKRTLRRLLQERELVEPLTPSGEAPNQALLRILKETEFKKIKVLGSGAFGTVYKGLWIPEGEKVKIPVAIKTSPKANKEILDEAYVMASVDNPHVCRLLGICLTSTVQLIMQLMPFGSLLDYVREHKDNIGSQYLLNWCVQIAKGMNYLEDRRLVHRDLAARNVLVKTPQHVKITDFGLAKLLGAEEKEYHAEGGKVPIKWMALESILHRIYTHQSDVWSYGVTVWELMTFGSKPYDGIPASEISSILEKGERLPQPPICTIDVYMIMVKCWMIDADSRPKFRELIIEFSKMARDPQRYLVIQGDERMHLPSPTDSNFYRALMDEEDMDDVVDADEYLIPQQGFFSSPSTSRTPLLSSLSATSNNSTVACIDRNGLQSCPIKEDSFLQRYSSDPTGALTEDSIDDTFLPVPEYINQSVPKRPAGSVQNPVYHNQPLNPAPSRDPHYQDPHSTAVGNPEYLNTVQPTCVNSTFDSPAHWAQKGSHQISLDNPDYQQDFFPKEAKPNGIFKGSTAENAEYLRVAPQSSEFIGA
Sequence of EGFR L858R/T790M/C797S (P00533 25-1210 T790M/C797S/L858R): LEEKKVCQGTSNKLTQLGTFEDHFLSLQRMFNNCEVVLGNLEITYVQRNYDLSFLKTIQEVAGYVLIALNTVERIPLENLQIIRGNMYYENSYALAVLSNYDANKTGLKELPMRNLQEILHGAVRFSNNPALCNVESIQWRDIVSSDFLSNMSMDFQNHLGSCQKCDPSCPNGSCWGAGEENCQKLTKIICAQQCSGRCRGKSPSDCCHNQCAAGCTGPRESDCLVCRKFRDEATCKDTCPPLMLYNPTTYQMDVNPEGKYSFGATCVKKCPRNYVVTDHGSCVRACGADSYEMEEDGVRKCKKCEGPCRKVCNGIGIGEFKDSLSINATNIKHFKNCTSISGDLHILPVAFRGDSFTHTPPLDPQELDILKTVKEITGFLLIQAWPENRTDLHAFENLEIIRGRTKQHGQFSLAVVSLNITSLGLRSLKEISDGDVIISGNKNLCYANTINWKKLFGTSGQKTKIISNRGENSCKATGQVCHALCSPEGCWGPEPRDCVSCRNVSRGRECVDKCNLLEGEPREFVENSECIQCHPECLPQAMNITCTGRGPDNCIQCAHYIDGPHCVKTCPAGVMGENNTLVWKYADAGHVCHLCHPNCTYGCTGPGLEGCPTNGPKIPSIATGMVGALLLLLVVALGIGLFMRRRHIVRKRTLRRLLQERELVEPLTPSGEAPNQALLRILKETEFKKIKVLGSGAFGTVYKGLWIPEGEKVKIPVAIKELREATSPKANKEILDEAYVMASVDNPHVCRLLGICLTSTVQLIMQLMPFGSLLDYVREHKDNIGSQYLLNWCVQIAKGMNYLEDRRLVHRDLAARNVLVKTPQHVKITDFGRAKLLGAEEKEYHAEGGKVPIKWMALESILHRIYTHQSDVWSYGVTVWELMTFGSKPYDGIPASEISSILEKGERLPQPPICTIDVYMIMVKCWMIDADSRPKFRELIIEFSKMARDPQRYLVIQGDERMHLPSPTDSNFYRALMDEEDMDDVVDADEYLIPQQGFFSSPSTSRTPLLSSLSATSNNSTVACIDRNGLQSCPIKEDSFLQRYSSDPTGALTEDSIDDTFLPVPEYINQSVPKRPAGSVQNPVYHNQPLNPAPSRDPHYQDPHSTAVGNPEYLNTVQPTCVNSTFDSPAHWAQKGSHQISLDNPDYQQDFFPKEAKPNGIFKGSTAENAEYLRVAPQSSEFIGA
Sequence of EGFR wildtype (WT) (P00533 25-1210): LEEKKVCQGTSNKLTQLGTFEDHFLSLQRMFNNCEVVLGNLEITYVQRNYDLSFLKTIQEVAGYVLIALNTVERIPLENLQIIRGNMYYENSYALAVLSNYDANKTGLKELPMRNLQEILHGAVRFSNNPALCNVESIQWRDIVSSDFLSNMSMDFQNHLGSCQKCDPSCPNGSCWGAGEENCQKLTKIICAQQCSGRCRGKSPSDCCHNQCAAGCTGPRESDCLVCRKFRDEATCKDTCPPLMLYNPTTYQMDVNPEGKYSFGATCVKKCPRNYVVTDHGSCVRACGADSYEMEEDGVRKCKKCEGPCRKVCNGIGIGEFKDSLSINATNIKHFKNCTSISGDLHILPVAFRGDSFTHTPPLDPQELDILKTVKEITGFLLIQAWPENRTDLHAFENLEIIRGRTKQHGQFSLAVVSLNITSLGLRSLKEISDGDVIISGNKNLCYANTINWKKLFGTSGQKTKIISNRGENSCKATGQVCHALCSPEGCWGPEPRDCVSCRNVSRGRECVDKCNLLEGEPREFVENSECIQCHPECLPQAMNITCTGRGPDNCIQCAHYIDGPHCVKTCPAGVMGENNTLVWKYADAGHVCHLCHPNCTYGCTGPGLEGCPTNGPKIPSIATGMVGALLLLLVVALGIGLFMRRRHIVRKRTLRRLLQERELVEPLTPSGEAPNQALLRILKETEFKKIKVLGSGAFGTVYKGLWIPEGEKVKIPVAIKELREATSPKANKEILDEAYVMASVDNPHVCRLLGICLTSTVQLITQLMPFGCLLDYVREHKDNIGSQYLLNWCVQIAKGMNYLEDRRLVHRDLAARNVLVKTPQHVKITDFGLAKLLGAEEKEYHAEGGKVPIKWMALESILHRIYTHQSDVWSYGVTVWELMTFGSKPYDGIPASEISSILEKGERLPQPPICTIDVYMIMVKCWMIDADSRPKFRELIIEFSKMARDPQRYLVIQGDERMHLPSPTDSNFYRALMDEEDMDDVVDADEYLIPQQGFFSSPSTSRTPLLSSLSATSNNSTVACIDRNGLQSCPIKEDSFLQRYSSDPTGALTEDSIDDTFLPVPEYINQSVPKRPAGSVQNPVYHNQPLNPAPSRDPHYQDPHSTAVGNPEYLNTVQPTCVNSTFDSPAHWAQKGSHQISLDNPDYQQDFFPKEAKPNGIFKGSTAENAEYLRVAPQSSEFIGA

As to `O=S(=O)(C1CC1)n1cc(-c2nccc(Nc3cc(N[C@H]4CC[C@@H](NCCF)CC4)c(-c4ccn(CC(F)F)n4)cn3)n2)cn1` [Example 242, N^2-(2-(1-(Cyclopropylsulfonyl)-1H-pyrazol-4-yl)pyrimidin-4-yl)-5-(1-(2,2-difluoroethyl)-1H-pyrazol-3-yl)-N^4-((1s,4s)-4-((2-fluoroethyl)amino)cyclohexyl)pyridine-2,4-diamine], the IC50 against EGFR del19/T790M/C797S (setting [1]) was 0.2 nM; at EGFR del19/T790M/C797S (setting [2]), 0.1 nM; against EGFR del19/C797S (setting [3]), 0.8 nM; at EGFR del19/C797S (setting [4]), 0.4 nM; on EGFR L858R/T790M/C797S (setting [5]), 0.2 nM; on EGFR L858R/T790M/C797S (setting [6]) it was 0.1 nM. The IC50 on EGFR L858R/C797S (setting [7]) is 20.9 nM; at EGFR L858R/C797S (setting [8]), 1.2 nM; on EGFR wildtype (WT) (setting [9]) it was 6320 nM; at EGFR wildtype (WT) (setting [10]), 6 nM.
`C[C@]1(F)CC[C@@H](Nc2cc(Nc3ccnc(-c4cnn(S(=O)(=O)C5CC5)c4)n3)ncc2-c2ccn(C(F)F)n2)CC1` [Example 220, N^2-(2-(1-(Cyclopropylsulfonyl)-1H-pyrazol-4-yl)pyrimidin-4-yl)-5-(1-(difluoromethyl)-1H-pyrazol-3-yl)-N^4-((1s,4s)-4-fluoro-4-methylcyclohexyl)pyridine-2,4-diamine]: the IC50 is 16.6 nM on EGFR del19/T790M/C797S (setting [2]); 539 nM at EGFR del19/C797S (setting [4]); 11.4 nM at EGFR L858R/T790M/C797S (setting [6]); 463 nM on EGFR L858R/C797S (setting [8]); 720 nM at EGFR wildtype (WT) (setting [10]).
Taken in the same sequence, the figures for `O=S(=O)(C1CC1)n1cc(-c2nccc(Nc3cc(NC4CC5(CC(O)C5)C4)c(-c4ccn(C(F)F)n4)cn3)n2)cn1` (centres unmarked) [Example 103, 6-((2-((2-(1-(Cyclopropylsulfonyl)-1H-pyrazol-4-yl)pyrimidin-4-yl)amino)-5-(1-(difluoromethyl)-1H-pyrazol-3-yl)pyridin-4-yl)amino)spiro[3.3]heptan-2-ol] were 0.8 nM, 31 nM, 0.4 nM, 24 nM and 58.2 nM.
`O=S(=O)(C1CC1)n1cc(-c2nccc(Nc3cc(N[C@H]4CC[C@@H](CCO)CC4)c(-c4ccn(CC(F)(F)F)n4)cn3)n2)cn1` [Example 269, 2-((1s,4s)-4-((2-((2-(1-(Cyclopropylsulfonyl)-1H-pyrazol-4-yl)pyrimidin-4-yl)amino)-5-(1-(2,2,2-trifluoroethyl)-1H-pyrazol-3-yl)pyridin-4-yl)amino)cyclohexyl)ethan-1-ol]: the IC50 on EGFR del19/T790M/C797S (setting [1]) stood at 1.3 nM; on EGFR del19/T790M/C797S (setting [2]), 2.8 nM; against EGFR del19/C797S (setting [3]) it was 29.9 nM; at EGFR del19/C797S (setting [4]), 1.3 nM; at EGFR L858R/T790M/C797S (setting [5]), 1.4 nM; at EGFR L858R/T790M/C797S (setting [6]), 0.5 nM. For the same compound, the IC50 against EGFR L858R/C797S (setting [7]) was determined as 4 nM; on EGFR L858R/C797S (setting [8]), 1.4 nM; at EGFR wildtype (WT) (setting [9]), 5750 nM; on EGFR wildtype (WT) (setting [10]) it was 7.1 nM.
Turning to `O=S(=O)(C1CC1)n1cc(-c2nccc(Nc3cc(NC4CCC(O)C4)c(-c4ccn(C(F)F)n4)cn3)n2)cn1` (centres unmarked) [Example 15, 3-((2-((2-(1-(Cyclopropylsulfonyl)-1H-pyrazol-4-yl)pyrimidin-4-yl)amino)-5-(1-(difluoromethyl)-1H-pyrazol-3-yl)pyridin-4-yl)amino)cyclopentan-1-ol], the IC50 against EGFR del19/T790M/C797S (setting [1]) is 0.6 nM; at EGFR del19/C797S (setting [3]) it was 3.2 nM; at EGFR L858R/T790M/C797S (setting [5]) it was 0.9 nM; at EGFR L858R/C797S (setting [7]), 9.7 nM; against EGFR wildtype (WT) (setting [9]) it was over 10000 nM.
As for `Cn1nc(-c2cnc(Nc3ccnc(-c4cnn(S(=O)(=O)C5CC5)c4)n3)cc2N[C@H]2CC[C@@H](CN3CCC3)CC2)cc1C(F)(F)F` [Example 264, N^4-((1s,4s)-4-(Azetidin-1-ylmethyl)cyclohexyl)-N^2-(2-(1-(cyclopropylsulfonyl)-1H-pyrazol-4-yl)pyrimidin-4-yl)-5-(1-methyl-5-(trifluoromethyl)-1H-pyrazol-3-yl)pyridine-2,4-diamine], the IC50 against EGFR del19/T790M/C797S (setting [1]) turned out to be 1.4 nM; at EGFR del19/T790M/C797S (setting [2]) it was 1.7 nM; against EGFR del19/C797S (setting [3]) it was 0.9 nM; at EGFR del19/C797S (setting [4]) it was 0.8 nM; at EGFR L858R/T790M/C797S (setting [5]), 0.6 nM; at EGFR L858R/T790M/C797S (setting [6]), 0.4 nM. In addition, the IC50 was determined as 2.2 nM on EGFR L858R/C797S (setting [7]), 0.4 nM at EGFR L858R/C797S (setting [8]) and 244 nM at EGFR wildtype (WT) (setting [9]).
Consider `FC(F)Cn1cc(-c2nccc(Nc3cc(NC4CCCC(F)C4)c(-c4ccn(C(F)F)n4)cn3)n2)cn1` (centres unmarked) [Example 180, N^2-(2-(1-(2,2-Difluoroethyl)-1H-pyrazol-4-yl)pyrimidin-4-yl)-5-(1-(difluoromethyl)-1H-pyrazol-3-yl)-N^4-(3-fluorocyclohexyl)pyridine-2,4-diamine], for which the IC50 on EGFR del19/T790M/C797S (setting [2]) was 1.3 nM; at EGFR del19/C797S (setting [4]), 410 nM; at EGFR L858R/T790M/C797S (setting [6]) it was 1.1 nM; at EGFR L858R/C797S (setting [8]) it was 23.2 nM; at EGFR wildtype (WT) (setting [10]), 418 nM.
As for `O=S(=O)(C1CC1)n1cc(-c2nccc(Nc3cc(NC4CCC(F)(F)CC4)c(-c4ccn(C(F)F)n4)cn3)n2)cn1` [Example 215, N^2-(2-(1-(Cyclopropylsulfonyl)-1H-pyrazol-4-yl)pyrimidin-4-yl)-N^4-(4,4-difluorocyclohexyl)-5-(1-(difluoromethyl)-1H-pyrazol-3-yl)pyridine-2,4-diamine], the IC50 at EGFR del19/T790M/C797S (setting [2]) was determined as 11.9 nM; on EGFR del19/C797S (setting [4]), 70.2 nM; on EGFR L858R/T790M/C797S (setting [6]) it was 8.6 nM; at EGFR L858R/C797S (setting [8]), 32.5 nM; at EGFR wildtype (WT) (setting [10]) it was 434 nM.
Taken in the same sequence, the figures for `CCC(C)Nc1cc(Nc2ccnc(-c3cnn(S(=O)(=O)C4CC4)c3)n2)ncc1-c1ccn(C(F)F)n1` (centres unmarked) [Example 210, N^4-(sec-Butyl)-N^2-(2-(1-(cyclopropylsulfonyl)-1H-pyrazol-4-yl)pyrimidin-4-yl)-5-(1-(difluoromethyl)-1H-pyrazol-3-yl)pyridine-2,4-diamine] were 1.7 nM, 70.5 nM, 1.3 nM, 6.5 nM and 90.5 nM.
`CO[C@H]1CCN(c2nccc(Nc3cc(N[C@H]4CC[C@@](C)(O)CC4)c(-c4ccn(C(F)F)n4)cn3)n2)C[C@H]1F` [Example 111, (1s,4s)-4-((5-(1-(Difluoromethyl)-1H-pyrazol-3-yl)-2-((2-((3R,4S)-3-fluoro-4-methoxypiperidin-1-yl)pyrimidin-4-yl)amino)pyridin-4-yl)amino)-1-methylcyclohexan-1-ol]: the IC50 at EGFR del19/T790M/C797S (setting [1]) was found to be 1.6 nM; at EGFR del19/T790M/C797S (setting [2]), 1.4 nM; against EGFR del19/C797S (setting [3]), 253 nM; on EGFR del19/C797S (setting [4]) it was 86.8 nM; against EGFR L858R/T790M/C797S (setting [5]) it was 0.2 nM; on EGFR L858R/T790M/C797S (setting [6]), 0.1 nM. Further, the IC50 against EGFR L858R/C797S (setting [7]) was 67.2 nM; on EGFR L858R/C797S (setting [8]) it was 19.7 nM; on EGFR wildtype (WT) (setting [9]) it was over 10000 nM; at EGFR wildtype (WT) (setting [10]), 53.7 nM.
For the compound `CN(C)C[C@H]1CC[C@@H](Nc2cc(Nc3ccnc(-c4cnn(S(=O)(=O)C5CC5)c4)n3)ncc2-c2cc(C(C)(C)O)n(C)n2)CC1` [Example 302, 2-(3-(6-((2-(1-(Cyclopropylsulfonyl)-1H-pyrazol-4-yl)pyrimidin-4-yl)amino)-4-(((1s,4s)-4-((dimethylamino)methyl)cyclohexyl)amino)pyridin-3-yl)-1-methyl-1H-pyrazol-5-yl)propan-2-ol], the IC50 was 0.4 nM at EGFR del19/T790M/C797S (setting [1]); 0.3 nM at EGFR del19/T790M/C797S (setting [2]); 0.3 nM against EGFR del19/C797S (setting [3]); 0.2 nM at EGFR del19/C797S (setting [4]); 0.2 nM against EGFR L858R/T790M/C797S (setting [5]); 0.1 nM on EGFR L858R/T790M/C797S (setting [6]). Further, the IC50 against EGFR L858R/C797S (setting [7]) was found to be 0.2 nM; at EGFR L858R/C797S (setting [8]), 0.1 nM; at EGFR wildtype (WT) (setting [9]) it was 38.9 nM; on EGFR wildtype (WT) (setting [10]), 0.2 nM.
Consider `COCn1ccc(-c2cnc(Nc3ccnc(-c4cnn(S(=O)(=O)C5CC5)c4)n3)cc2N[C@H]2CC[C@@](C)(O)CC2)n1` [Example 294, (1s,4s)-4-((2-((2-(1-(Cyclopropylsulfonyl)-1H-pyrazol-4-yl)pyrimidin-4-yl)amino)-5-(1-(methoxymethyl)-1H-pyrazol-3-yl)pyridin-4-yl)amino)-1-methylcyclohexan-1-ol], for which the IC50 at EGFR del19/T790M/C797S (setting [2]) was found to be 0.4 nM; at EGFR del19/C797S (setting [4]), 1 nM; at EGFR L858R/T790M/C797S (setting [6]), 0.2 nM; on EGFR L858R/C797S (setting [8]), 0.1 nM; on EGFR wildtype (WT) (setting [10]), 0.9 nM.
For the compound `CN(C)C[C@H]1C[C@@H](CNc2cc(Nc3ccnc(-c4cnn(S(=O)(=O)C5CC5)c4)n3)ncc2-c2ccn(C)n2)C1` [Example 234, N^2-(2-(1-(Cyclopropylsulfonyl)-1H-pyrazol-4-yl)pyrimidin-4-yl)-N^4-(((1s,3s)-3-((dimethylamino)methyl)cyclobutyl)methyl)-5-(1-methyl-1H-pyrazol-3-yl)pyridine-2,4-diamine], the IC50 against EGFR del19/T790M/C797S (setting [1]) was 0.1 nM; at EGFR del19/C797S (setting [3]) it was 1.7 nM; at EGFR L858R/T790M/C797S (setting [5]) it was 0.2 nM; on EGFR L858R/C797S (setting [7]) it was 8.7 nM; on EGFR wildtype (WT) (setting [9]), 1790 nM.
